According to ChEMBL document CHEMBL6177998, “Rational Design of Dual Degraders by Incorporating Molecular Glue Structural Features into PROTAC Degraders” (J Med Chem, 2025):
Calls of active or inactive are those of the source. The calls are words filed in the database; no cut-off is given here.

How the values were obtained:
[1] = biological target: Protein cereblon/Androgen receptor (Homo sapiens, UniProt P10275+Q96SW2); experiment: PROTAC activity at CRBN/AR in human VCaP cells assessed as induction of AR degradation at 0.1 uM incubated for 24 hrs by Western blot analysis relative to control; assay type: cell-based
Protein cereblon/Androgen receptor, sequence (P10275 whole entry, looked up, canonical isoform): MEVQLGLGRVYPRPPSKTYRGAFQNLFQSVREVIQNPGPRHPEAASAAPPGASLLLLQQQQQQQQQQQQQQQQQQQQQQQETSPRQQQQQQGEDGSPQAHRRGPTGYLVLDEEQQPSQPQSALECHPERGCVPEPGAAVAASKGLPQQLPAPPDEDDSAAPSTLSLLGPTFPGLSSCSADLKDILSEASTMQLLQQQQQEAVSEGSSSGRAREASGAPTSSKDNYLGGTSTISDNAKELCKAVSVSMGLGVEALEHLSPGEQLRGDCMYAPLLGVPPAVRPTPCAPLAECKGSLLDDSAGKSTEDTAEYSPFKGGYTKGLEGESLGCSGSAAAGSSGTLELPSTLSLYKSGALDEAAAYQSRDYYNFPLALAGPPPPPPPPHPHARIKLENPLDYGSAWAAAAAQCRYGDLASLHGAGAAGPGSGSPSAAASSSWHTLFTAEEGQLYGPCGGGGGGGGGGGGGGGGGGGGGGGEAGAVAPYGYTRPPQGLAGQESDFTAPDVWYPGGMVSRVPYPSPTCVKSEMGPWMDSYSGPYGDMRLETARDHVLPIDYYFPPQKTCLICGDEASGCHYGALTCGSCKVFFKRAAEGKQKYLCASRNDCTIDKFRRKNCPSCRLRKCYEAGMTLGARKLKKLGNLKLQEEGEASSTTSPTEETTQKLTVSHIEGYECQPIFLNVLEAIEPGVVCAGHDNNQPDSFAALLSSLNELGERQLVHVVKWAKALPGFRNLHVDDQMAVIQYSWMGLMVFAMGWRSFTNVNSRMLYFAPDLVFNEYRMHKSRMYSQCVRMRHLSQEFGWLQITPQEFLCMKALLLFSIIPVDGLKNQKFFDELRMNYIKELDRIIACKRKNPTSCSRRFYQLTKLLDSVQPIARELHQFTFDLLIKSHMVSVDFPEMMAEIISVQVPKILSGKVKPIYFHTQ
Protein cereblon/Androgen receptor, sequence (Q96SW2 whole entry, looked up, canonical isoform): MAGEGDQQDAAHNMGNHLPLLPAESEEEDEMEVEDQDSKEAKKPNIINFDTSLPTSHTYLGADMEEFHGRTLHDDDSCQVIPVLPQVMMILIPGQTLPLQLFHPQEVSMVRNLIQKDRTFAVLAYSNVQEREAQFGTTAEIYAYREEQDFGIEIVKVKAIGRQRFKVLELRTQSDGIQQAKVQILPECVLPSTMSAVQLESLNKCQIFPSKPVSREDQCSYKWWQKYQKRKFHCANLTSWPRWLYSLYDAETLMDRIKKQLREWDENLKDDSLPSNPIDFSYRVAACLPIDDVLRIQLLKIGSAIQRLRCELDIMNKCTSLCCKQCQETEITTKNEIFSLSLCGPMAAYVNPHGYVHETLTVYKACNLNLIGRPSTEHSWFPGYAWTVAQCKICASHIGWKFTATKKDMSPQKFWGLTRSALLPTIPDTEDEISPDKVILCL

[2] = tested on: Protein cereblon/Androgen receptor (Homo sapiens), P10275+Q96SW2 [UNDEFINED MUTATION]; experiment: PROTAC activity at CRBN/Androgen receptor splice variant 7 in human VCaP cells assessed as induction of AR-V7 degradation at 0.1 uM incubated for 24 hrs by Western blot analysis relative to control; assay type: cell-based
Protein cereblon/Androgen receptor (Homo sapiens), P10275+Q96SW2 [UNDEFINED MUTATION], sequence (P10275 whole entry, looked up, stated change not applied, canonical isoform): as the sequence (P10275 whole entry, looked up, canonical isoform) above
Protein cereblon/Androgen receptor (Homo sapiens), P10275+Q96SW2 [UNDEFINED MUTATION], sequence (Q96SW2 whole entry, looked up, stated change not applied, canonical isoform): as the sequence (Q96SW2 whole entry, looked up, canonical isoform) above

[3] = tested on: Protein cereblon/Androgen receptor (Homo sapiens), P10275+Q96SW2 [UNDEFINED MUTATION]; experiment: PROTAC activity at CRBN/Androgen receptor splice variant 7 in human 22Rv1 cells assessed as induction of AR-V7 degradation at 20 nM incubated for 18 hrs by Western blot analysis (reference value: 0%); assay type: cell-based
[4] = tested on: Protein cereblon/Androgen receptor (Homo sapiens), P10275+Q96SW2 [UNDEFINED MUTATION]; experiment: PROTAC activity at CRBN/Androgen receptor splice variant 7 in human 22Rv1 cells assessed as induction of AR-V7 degradation at 20 nM incubated for 36 hrs by Western blot analysis (reference value: 0%); assay type: cell-based
[5] = biological target: T1, Protein cereblon/Eukaryotic peptide chain release factor GTP-binding subunit ERF3A (Homo sapiens, UniProt Q96SW2+P15170); experiment: Molecular glue activity at CRBN/GSPT1 in human 22Rv1 cells assessed as induction of GSPT1 degradation at 20 nM incubated for 1 hrs by Western blot analysis (reference value: 0 %); assay type: cell-based
Target sequence in this assay (P15170 whole entry, looked up): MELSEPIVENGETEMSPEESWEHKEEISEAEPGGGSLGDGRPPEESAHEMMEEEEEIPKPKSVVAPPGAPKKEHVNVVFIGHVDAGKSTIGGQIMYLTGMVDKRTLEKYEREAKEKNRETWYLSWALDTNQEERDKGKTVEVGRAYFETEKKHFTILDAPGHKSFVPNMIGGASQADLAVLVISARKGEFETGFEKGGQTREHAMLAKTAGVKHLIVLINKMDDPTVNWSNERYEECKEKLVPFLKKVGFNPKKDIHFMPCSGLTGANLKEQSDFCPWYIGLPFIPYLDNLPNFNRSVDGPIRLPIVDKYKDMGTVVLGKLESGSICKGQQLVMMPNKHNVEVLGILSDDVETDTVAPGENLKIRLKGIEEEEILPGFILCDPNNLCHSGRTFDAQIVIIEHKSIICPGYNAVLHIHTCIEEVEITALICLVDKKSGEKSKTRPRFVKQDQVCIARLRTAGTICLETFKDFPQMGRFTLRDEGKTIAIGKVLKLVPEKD
Target sequence in this assay (Q96SW2 whole entry, looked up): as the sequence (Q96SW2 whole entry, looked up, canonical isoform) above

[6] = biological target: T1, Protein cereblon/Eukaryotic peptide chain release factor GTP-binding subunit ERF3A; experiment: Molecular glue activity at CRBN/GSPT1 in human 22Rv1 cells assessed as induction of GSPT1 degradation at 20 nM incubated for 24 hrs by Western blot analysis (reference value: 0 %); assay type: cell-based
Target sequence in this assay (P15170 whole entry, looked up): as the sequence (P15170 whole entry, looked up) above
Target sequence in this assay (Q96SW2 whole entry, looked up): as the sequence (Q96SW2 whole entry, looked up, canonical isoform) above

[7] = biological target: T1, Protein cereblon/Eukaryotic peptide chain release factor GTP-binding subunit ERF3A; experiment: Molecular glue activity at CRBN/GSPT1 in human LNCaP cells assessed as induction of GSPT1 degradation incubated for 24 hrs by Western blot analysis; assay type: cell-based
[8] = biological target: T1, Protein cereblon/Eukaryotic peptide chain release factor GTP-binding subunit ERF3A; experiment: Molecular glue activity at CRBN/GSPT1 in human VCaP cells assessed as induction of GSPT1 degradation by measuring maximal efficacy incubated for 24 hrs by Western blot analysis relative to control; assay type: cell-based
Target sequence in this assay (P15170 whole entry, looked up): as the sequence (P15170 whole entry, looked up) above
Target sequence in this assay (Q96SW2 whole entry, looked up): as the sequence (Q96SW2 whole entry, looked up, canonical isoform) above

[9] = biological target: T1, Protein cereblon/Eukaryotic peptide chain release factor GTP-binding subunit ERF3A; experiment: Molecular glue activity at CRBN/GSPT1 in human VCaP cells assessed as induction of GSPT1 degradation at 20 nM measured after 6 hrs by Western blot analysis; assay type: cell-based
Target sequence in this assay (P15170 whole entry, looked up): as the sequence (P15170 whole entry, looked up) above
Target sequence in this assay (Q96SW2 whole entry, looked up): as the sequence (Q96SW2 whole entry, looked up, canonical isoform) above

CWR22R [10] = experiment: Effect on androgen receptor splice variant 7 mRNA expression in human 22Rv1 cells at 1 to 10 nM incubated for 24 hrs by RT-PCR analysis; assay type: functional, cell-based; settings: dose 1-10 nM
CWR22R [11] = experiment: Effect on GSPT1 mRNA expression in human 22Rv1 cells at 1 to 10 nM incubated for 24 hrs by RT-PCR analysis; assay type: functional, cell-based; settings: dose 1-10 nM
[12] = tested on: Protein cereblon/Androgen receptor (Homo sapiens), P10275+Q96SW2 [UNDEFINED MUTATION]; experiment: PROTAC activity at CRBN/Androgen receptor splice variant 7 in human 22Rv1 cells assessed as induction of AR-V7 degradation at 50 nM preincubated with MG132 followed by compound addition and measured after 12 hrs by Western blot analysis; assay type: cell-based
[13] = tested on: Protein cereblon/Androgen receptor (Homo sapiens), P10275+Q96SW2 [UNDEFINED MUTATION]; experiment: PROTAC activity at CRBN/Androgen receptor splice variant 7 in human VCaP cells assessed as induction of AR-V7 degradation at 50 nM preincubated with MG132 followed by compound addition and measured after 12 hrs by Western blot analysis; assay type: cell-based
[14] = tested on: Protein cereblon/Androgen receptor (Homo sapiens), P10275+Q96SW2 [UNDEFINED MUTATION]; experiment: PROTAC activity at CRBN/Androgen receptor splice variant 7 in human 22Rv1 cells assessed as induction of AR-V7 degradation at […] preincubated with thalidomide followed by compound addition and measured after 12 hrs by Western blot analysis; assay type: cell-based
[15] = biological target: Protein cereblon/Zinc finger protein Helios (Homo sapiens) (UniProt Q96SW2+Q9UKS7); experiment: Molecular glue activity at CRBN/IKZF2 in human 22Rv1 cells assessed as induction of IKZF2 degradation at 1 uM incubated for 6 hrs by Western blot analysis; assay type: cell-based
Protein cereblon/Zinc finger protein Helios (Homo sapiens), sequence (Q96SW2 whole entry, looked up): as the sequence (Q96SW2 whole entry, looked up, canonical isoform) above
Protein cereblon/Zinc finger protein Helios (Homo sapiens), sequence (Q9UKS7 whole entry, looked up): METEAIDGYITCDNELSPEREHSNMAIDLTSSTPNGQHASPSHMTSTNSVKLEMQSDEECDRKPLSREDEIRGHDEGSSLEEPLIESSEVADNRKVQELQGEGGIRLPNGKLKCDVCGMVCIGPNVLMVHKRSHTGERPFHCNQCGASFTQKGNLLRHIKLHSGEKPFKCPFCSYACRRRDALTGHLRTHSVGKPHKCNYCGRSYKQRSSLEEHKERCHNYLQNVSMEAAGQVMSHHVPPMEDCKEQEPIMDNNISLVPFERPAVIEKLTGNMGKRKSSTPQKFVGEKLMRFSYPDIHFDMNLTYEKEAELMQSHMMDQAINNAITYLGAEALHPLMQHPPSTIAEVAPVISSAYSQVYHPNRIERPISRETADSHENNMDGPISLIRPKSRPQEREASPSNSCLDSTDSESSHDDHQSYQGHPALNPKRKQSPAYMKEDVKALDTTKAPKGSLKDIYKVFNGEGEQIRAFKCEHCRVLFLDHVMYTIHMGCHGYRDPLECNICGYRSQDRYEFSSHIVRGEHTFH

VCaP = experiment: Antiproliferative activity against AR-dependent human VCaP cells assessed as cell growth inhibition incubated for 72 hrs by Celltiter-lumi luminescent cell viability assay; assay type: functional, cell-based
LNCaP [16] = experiment: Antiproliferative activity against AR-dependent human LNCaP cells assessed as cell growth inhibition incubated for 72 hrs by Celltiter-lumi luminescent cell viability assay; assay type: functional, cell-based
CWR22R [17] = experiment: Downregulation of GTPBP6 gene expression in human 22Rv1 cells at 3 nM incubated for 24 hrs by Volcano plot analysis; assay type: functional, cell-based
CWR22R [18] = experiment: Downregulation of RCC2 gene expression in human 22Rv1 cells at 3 nM incubated for 24 hrs by Volcano plot analysis; assay type: functional, cell-based
CWR22R [19] = experiment: Cell cycle arrest in human 22Rv1 cells assessed as accumulation of cells at G1 phase at 1 nM incubated for 24 hrs by flow cytometric analysis (reference value: 49.7 %); assay type: functional
CWR22R [20] = experiment: Cell cycle arrest in human 22Rv1 cells assessed as accumulation of cells at G1 phase at 30 nM incubated for 24 hrs by flow cytometric analysis (reference value: 49.7 %); assay type: functional
LNCaP [21] = experiment: Induction of apoptosis in human LNCaP cells assessed as increase in cleaved caspase-3 expression incubated for 24 hrs by Western blot analysis; assay type: functional, cell-based; settings: dose 1-100 nM
[22] = tested on: Protein cereblon/Androgen receptor (Homo sapiens), P10275+Q96SW2 [UNDEFINED MUTATION]; experiment: PROTAC activity at CRBN/Androgen receptor splice variant 7 in human Enzalutamide-resistant LNCaP cells assessed as induction of AR-V7 degradation at 1 to 300 nM by Western blot analysis; assay type: cell-based; settings: dose 1-300 nM
[23] = biological target: T1, Protein cereblon/Eukaryotic peptide chain release factor GTP-binding subunit ERF3A; experiment: Molecular glue activity at CRBN/GSPT1 in human Enzalutamide-resistant LNCaP cells assessed as induction of GSPT1 degradation at 1 to 300 nM by Western blot analysis; assay type: cell-based; settings: dose 1-300 nM
Target sequence in this assay (P15170 whole entry, looked up): as the sequence (P15170 whole entry, looked up) above
Target sequence in this assay (Q96SW2 whole entry, looked up): as the sequence (Q96SW2 whole entry, looked up, canonical isoform) above

[24] = tested on: Protein cereblon/Androgen receptor (Homo sapiens), P10275+Q96SW2 [UNDEFINED MUTATION]; experiment: PROTAC activity at CRBN/Androgen receptor splice variant 7 in human Enzalutamide-resistant VCaP cells assessed as induction of AR-V7 degradation at 1 to 300 nM by Western blot analysis; assay type: cell-based; settings: dose 1-300 nM
[25] = Antiproliferative activity against human Enzalutamide-resistant VCaP cells assessed as cell growth inhibition incubated for 72 hrs by Celltiter-lumi luminescent cell viability assay; assay type: functional, cell-based
[26] = Antiproliferative activity against human Enzalutamide-resistant LNCaP cells assessed as cell growth inhibition incubated for 72 hrs by Celltiter-lumi luminescent cell viability assay; assay type: functional, cell-based
[27] = Clearance in male ICR mouse at 2 mg/kg, iv by LC-MS/MS analysis; assay type: ADME, organism-based; settings: in vivo
[28] = Cmax in male ICR mouse at 10 mg/kg, po by LC-MS/MS analysis; assay type: ADME, organism-based; settings: in vivo
LNCaP [29] = experiment: Antitumor activity against human LNCaP cells xenografted in NOD SCID male mouse model assessed as tumor growth inhibition at 20 mg/kg, po administered daily for 26 days relative to control; assay type: functional; settings: 624 h, time 26 day, read-out: TGI
[30] = biological target: T1, Protein cereblon/Eukaryotic peptide chain release factor GTP-binding subunit ERF3A; experiment: In vivo molecular glue activity at CRBN/GSPT1 in male NOD SCID mouse model xenografted with human LNCaP cells assessed as reduction in GSPT1 level in tumor at 20 mg/kg, po administered daily for 26 days by Western blot analysis; assay type: functional, organism-based; settings: time 26.0 day
Target sequence in this assay (P15170 whole entry, looked up): as the sequence (P15170 whole entry, looked up) above
Target sequence in this assay (Q96SW2 whole entry, looked up): as the sequence (Q96SW2 whole entry, looked up, canonical isoform) above

Mus musculus = experiment: In vivo inhibition of AR transcriptional activity in male NOD SCID mouse model xenografted with human LNCaP cells assessed as reduction in PSA level in tumor at 20 mg/kg, po administered daily for 26 days by ELISA; assay type: functional, organism-based; settings: time 26.0 day

SMILES: COc1ccc(C(C)(C)c2cc(Cl)c(OCC3CCN(C(=O)CCCCCNc4ccc5c(c4)C(=O)N(C4CCC(=O)NC4=O)C5=O)CC3)c(C#N)c2)cc1 (stereo not drawn)
- Activity [1]: 92.2%
- Activity [2]: 81.3%
- Activity [3]: 91.4%
- Activity [4]: 98.3%
- Activity [5]: 21.8%
- Activity [6]: 98.1%
- Activity [7]: Dose-dependent-effect
- DC50 [7]: 0.9 nM
- Emax [8]: 96%
- Activity [9]: Active
- Activity (CWR22R [10]): Minimal_effect
- Activity (CWR22R [11]): Minimal_effect
- Activity [12]: inactive
- Activity [13]: inactive
- Activity [14]: inactive
- Activity [15]: inactive
- IC50 (VCaP): 1.5 nM
- IC50 (LNCaP [16]): 2.8 nM
- Activity (CWR22R [17]): Active
- Activity (CWR22R [18]): Active
- Activity (CWR22R [19]): 50.3%
- Activity (CWR22R [20]): 74.6%
- Activity (LNCaP [21]): Dose-dependent-effect
- Activity [22]: Active
- Activity [23]: Active
- Activity [24]: Active
- IC50 [25]: 6.99 nM
- IC50 [26]: 25.1 nM
- clearance [27]: 18 mL/min/kg
- Cmax [28]: 206 ng/mL
- inhibition in vivo at 20 mg/kg (LNCaP [29]): 60%
- Activity [30]: Active
- inhibition (Mus musculus): Active; Superior Activity Than Enzalutamide Treatment Group Observed
